Patent publication US20070299092A1 (Wyeth, priority 2004, published 2007)
“And” between values parts separate entries of the source, which are not always exact repeats. Identical values can stand only once. Like-named read-outs stand apart in the source and are kept apart here.

Assays:
[1] = molecular target: T1, human KDR (VEGF-receptor-2) (Homo sapiens, UniProt P35968); assay: KDR kinase enzyme assay (DELFIA, KDR-IC-Flag, poly(Glu4-Tyr) peptide); type: biochemical; conditions: for inhibition at 0.1 µM: Concentration 100 nM; for inhibition at 1 µM: Concentration 1000 nM
T1 construct: beginning at Met-806; (5′-ATG GAT CCA GAT GM CTC CCA TTG) and ending at Val-1356; made in house
T1 sequence (P35968 806-1356): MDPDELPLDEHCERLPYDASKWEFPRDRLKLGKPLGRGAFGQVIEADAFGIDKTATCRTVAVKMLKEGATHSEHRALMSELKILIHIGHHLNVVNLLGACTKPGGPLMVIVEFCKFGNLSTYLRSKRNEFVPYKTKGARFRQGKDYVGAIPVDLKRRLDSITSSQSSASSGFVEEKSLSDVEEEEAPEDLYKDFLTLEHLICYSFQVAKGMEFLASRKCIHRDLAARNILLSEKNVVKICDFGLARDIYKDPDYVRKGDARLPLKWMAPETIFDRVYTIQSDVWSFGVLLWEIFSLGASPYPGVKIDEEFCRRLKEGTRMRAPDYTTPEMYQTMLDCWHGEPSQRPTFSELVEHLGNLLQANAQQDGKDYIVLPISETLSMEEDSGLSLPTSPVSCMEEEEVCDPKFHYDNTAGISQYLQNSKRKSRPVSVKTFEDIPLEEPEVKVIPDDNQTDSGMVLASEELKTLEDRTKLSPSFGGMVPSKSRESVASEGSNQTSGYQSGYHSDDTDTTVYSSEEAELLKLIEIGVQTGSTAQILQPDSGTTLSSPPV

[2] = molecular target: T1, human KDR (VEGF-receptor-2); assay: KDR kinase enzyme assay wash-out experiments (irreversible inhibition); type: biochemical
Method: To determine if compounds bound irreversibly to enzyme, plates were washed after the enzyme plus compound pre-incubation step and prior to the addition of ATP. Parallel plates were tested wherein one plate was processed exactly as above while a second plate was washed three times in 100 μl of 4 mM HEPES, pH 7.4, to remove unbound compound. 1× Kinase buffer (30 μl of 1 mM MnCl2, 4 mM HEPES, pH 7.4, 20 μM Na3VO4) and 20 μl of ATP/MgCl2 were added to the wash-out plate. Detection of phosphotyrosinylated peptide for both plates was performed as described above.
For each inhibitor shown in Table 2, two IC50 determinations are shown, one under normal conditions and the other where an intermediate wash-out step is carried out. […] If there was a large increase in the IC50 value in the wash-out experiment compared to the experiment where there was no wash-out, then it was determined that the compound was behaving as a conventional reversible binding inhibitor.

[3] = tested on: Human umbilical vein endothelial cells (HUVEC); assay: HUVEC proliferation assay, VEGF-dependent growth ([3H]-thymidine incorporation); type: cell-based; conditions: for inhibition at 10 µM / inhibition at 0.1 µM / inhibition at 1 µM: Homo sapiens, HUVEC; for inhibition at 0.1 µM: conc. 100 nM
Method: Cells were plated into 96-well dishes (4000 cells per well) and allowed to attach overnight. HUVEC were rinsed one time with 100 μl of EBMc-V (EBM supplemented with all above components except serum or VEGF), then 50 ul of EBMc-V was added to cells. Compounds were prepared at 200× stocks in DMSO, diluted into EBMc-V media as 4× stocks, then 50 ul added to appropriate wells. Finally, 100 μl of 2×VEGF (100 ng/ml prepared in EBMc-V; final 50 ng/ml VEGF) was added to all VEGF-treated wells. EBMc-V (no VEGF) was added to negative control wells. Parallel compound-treated plates were prepared except that 100 μl of EGM2 media containing 2% serum but lacking VEGF (EGMc-V) was added. Cells were incubated for 4-5 days at 37° C.
DNA synthesis was assessed by thymidine incorporation. Cells were incubated for 5 hours in 1 μCi of [^3H]-thymidine (PerkinElmer) by addition of 10 ul of 0.1 μCi/ul thymidine prepared in PBS to each well. After incubation, media was aspirated and the cells trypsinized and collected onto a mat using a vacuum-based Micro Cell Harvester (Skatron). [^3H]-thymidine was counted in a liquid scintillation counter. Compounds evaluated for ability to inhibit VEGF-dependent growth of human umbilical vein endothelial cells (HUVEC).

KDR = KDR (Homo sapiens, UniProt P35968); assay: cell-based; conditions: for inhibition at 1 µM: read-out: % Inhibition of KDR kinase autophosphorylation in KDR15 cells, compound conc. 1000 nM
Sequence of KDR (P35968 20-1356): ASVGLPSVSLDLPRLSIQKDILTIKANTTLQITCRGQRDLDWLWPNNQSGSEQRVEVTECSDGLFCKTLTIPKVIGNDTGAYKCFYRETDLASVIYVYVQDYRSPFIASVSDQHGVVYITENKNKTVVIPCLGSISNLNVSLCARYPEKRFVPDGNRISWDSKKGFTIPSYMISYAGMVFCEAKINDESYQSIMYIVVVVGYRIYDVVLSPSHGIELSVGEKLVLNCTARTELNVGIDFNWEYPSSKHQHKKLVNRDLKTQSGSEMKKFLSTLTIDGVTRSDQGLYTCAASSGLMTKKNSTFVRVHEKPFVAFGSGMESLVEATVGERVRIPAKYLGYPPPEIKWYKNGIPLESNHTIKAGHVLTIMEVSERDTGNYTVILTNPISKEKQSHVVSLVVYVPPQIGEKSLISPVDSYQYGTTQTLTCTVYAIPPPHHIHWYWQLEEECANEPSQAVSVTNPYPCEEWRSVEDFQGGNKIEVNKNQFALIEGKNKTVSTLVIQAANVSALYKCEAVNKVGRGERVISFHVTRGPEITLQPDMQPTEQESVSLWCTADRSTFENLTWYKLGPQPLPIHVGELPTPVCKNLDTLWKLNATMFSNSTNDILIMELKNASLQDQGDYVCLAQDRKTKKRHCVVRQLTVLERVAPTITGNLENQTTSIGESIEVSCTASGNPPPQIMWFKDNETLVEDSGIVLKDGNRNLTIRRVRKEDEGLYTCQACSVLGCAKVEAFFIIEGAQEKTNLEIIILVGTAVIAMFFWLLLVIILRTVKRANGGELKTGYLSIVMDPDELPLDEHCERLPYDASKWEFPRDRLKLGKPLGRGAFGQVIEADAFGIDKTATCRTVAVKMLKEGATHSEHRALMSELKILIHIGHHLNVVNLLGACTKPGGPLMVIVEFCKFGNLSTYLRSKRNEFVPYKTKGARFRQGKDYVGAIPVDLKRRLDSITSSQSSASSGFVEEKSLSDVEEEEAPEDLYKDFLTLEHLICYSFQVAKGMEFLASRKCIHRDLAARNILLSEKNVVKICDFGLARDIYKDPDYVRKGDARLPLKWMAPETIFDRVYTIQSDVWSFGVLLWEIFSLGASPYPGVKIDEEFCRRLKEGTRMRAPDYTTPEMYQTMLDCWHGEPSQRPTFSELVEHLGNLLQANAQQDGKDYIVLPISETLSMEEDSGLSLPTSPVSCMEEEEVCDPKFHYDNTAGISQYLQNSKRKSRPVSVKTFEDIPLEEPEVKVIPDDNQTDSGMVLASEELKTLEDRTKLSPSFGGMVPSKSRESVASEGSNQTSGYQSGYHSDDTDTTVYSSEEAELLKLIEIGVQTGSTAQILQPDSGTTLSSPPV

[4] = ATP conc. 10 μM, read-out: % Inhibition
[5] = ATP conc. 1000 μM, read-out: % Inhibition

SMILES	IC50 ([1]; ATP conc. 10 μM)	inhibition at 0.1 µM [1, 4] [%]	inhibition at 1 µM [1, 4] [%]	inhibition at 1 µM [1, 5] [%]	inhibition at 1 µM (KDR) [%]	also measured
COCCOc1cc2ncnc(NC3=CC(=O)C(Sc4nccs4)=C(OC)C3=O)c2cc1OC [Example 20]	17.9 nM	92	90	97		IC50 ([2]; no wash): 17.9 nM; IC50 ([2]; wash out): 33.1 nM
CCC1=CC(=O)C(Nc2ncnc3cc(OC)c(OC)cc23)=CC1=O [Example 8, 2-[(6,7-dimethoxy-4-quinazolinyl)amino]-5-ethylbenzo-1,4-quinone]	175 nM and 177 nM	51	82	80		IC50 ([1]; ATP conc. 100 μM): 200 nM; IC50 ([1]; ATP conc. 1000 μM): 239 nM; inhibition at 10 µM ([3]; conc. 10000 nM): 87%; % Inhibition of VEGF-dependent growth of HUVEC ([3]; conc. 1000 nM): 30% and 51% and 37%; % Inhibition of VEGF-dependent growth of HUVEC ([3]; conc. 10000 nM): 98% and 89%; IC50 (KDR; IC50 (nM), inhibition of KDR kinase autophosphorylation in KDR15 cells, KDR15 cells, VEGF 50 ng/ml, phospho-KDR-Y996 immunoblot): 172 nM; inhibition at 0.5 µM (KDR; read-out: % Inhibition of KDR kinase autophosphorylation in KDR15 cells, compound conc. 500 nM): 25%
COCCOc1cc2ncc(C#N)c(NC3=CC(=O)C(Oc4ccc(-n5ccnc5)cc4)=CC3=O)c2cc1OC [Example 72, 4-({4-[4-(1H-imidazol-1-yl)phenoxy]-3,6-dioxocyclohexa-1,4-dien-1-yl}amino)-6-methoxy-7-(2-methoxyethoxy)quinoline-3-carbonitrile]	53.7 nM and 72.4 nM	73	93	94		IC50 ([2]; no wash): 53.7 nM; IC50 ([2]; wash out): 73.7 nM
COCCOc1cc2ncnc(NC3=CC(=O)C(Oc4ccc(C(=O)c5ccccc5)cc4)=CC3=O)c2cc1OC [Example 39, 2-(4-benzoylphenoxy)-5-{[6-methoxy-7-(2-methoxyethoxy)quinazolin-4-yl]amino}benzo-1,4-quinone]	3.5 nM	91	94		140	inhibition at 0.1 µM [3]: 18%; inhibition at 1 µM ([3]; conc. 1000 nM): 58%; inhibition at 10 µM ([3]; conc. 10000 nM): 99%
COCCOc1cc2ncnc(NC3=CC(=O)C(Oc4ccc5c(c4)Cc4ccccc4-5)=CC3=O)c2cc1OC [Example 53, 2-(9H-fluoren-2-yloxy)-5-{[6-methoxy-7-(2-methoxyethoxy)quinazolin-4-yl]amino}benzo-1,4-quinone]		90	94		79	
COCCOc1cc2ncnc(NC3=CC(=O)C(Oc4ccc(Oc5ccccc5)cc4)=CC3=O)c2cc1OC [Example 29, 2-{[6-methoxy-7-(2-methoxyethoxy)quinazolin-4-yl]amino}-5-(4-phenoxyphenoxy)benzo-1,4-quinone]	37.7 nM				30	inhibition at 0.1 µM ([1]; ATP conc. 10 μM): 62%; inhibition at 1 µM ([1]; ATP conc. 10 μM): 92%; inhibition at 1 µM ([1]; ATP conc. 1000 μM): 95%
COCCOc1cc2ncnc(NC3=CC(=O)C(Oc4cccc(C(C)=O)c4)=CC3=O)c2cc1OC [Example 34, 2-(3-acetylphenoxy)-5-{[6-methoxy-7-(2-methoxyethoxy)quinazolin-4-yl]amino}benzo-1,4-quinone]		55	95	97	12	
COCCOc1cc2ncnc(NC3=CC(=O)C(Oc4cccc(C#N)c4)=CC3=O)c2cc1OC [Example 27, 3-[(4-{[6-methoxy-7-(2-methoxyethoxy)quinazolin-4-yl]amino}-3,6-dioxocyclohexa-1,4-dien-1-yl)oxy]benzonitrile]	34.4 nM	63	96	98	25	
COCCOc1cc2ncnc(NC3=CC(=O)C(Oc4ccc(CCN)cc4)=CC3=O)c2cc1OC [Example 54, 2-[4-(2-aminoethyl)phenoxy]-5-{[6-methoxy-7-(2-methoxyethoxy)quinazolin-4-yl]amino}benzo-1,4-quinone]		-2	10		-5	
COCCOc1cc2ncnc(NC3=CC(=O)C(Oc4ccc(Br)cc4)=CC3=O)c2cc1OC [Example 46, 2-(4-bromophenoxy)-5-{[6-methoxy-7-(2-methoxyethoxy)quinazolin-4-yl]amino}benzo-1,4-quinone]		93	94		79	
COCCOc1cc2ncnc(NC3=CC(=O)C(N(C)c4cccc(F)c4)=CC3=O)c2cc1OC [Example 74, 2-[(3-fluorophenyl)(methyl)amino]-5-{[6-methoxy-7-(2-methoxyethoxy)quinazolin-4-yl]amino}benzo-1,4-quinone]		27	89	84	4	
COCCOc1cc2ncnc(NC3=C(Sc4ccccc4)C(=O)C=C(OC)C3=O)c2cc1OC [Example 18, 5-methoxy-3-{[6-methoxy-7-(2-methoxyethoxy)quinazolin-4-yl]amino}-2-(phenylthio)benzo-1,4-quinone]		13	2	-30	27	
COCCOc1cc2ncnc(NC3=CC(=O)C(Oc4ccc(CCC(=O)OC)cc4)=CC3=O)c2cc1OC [Example 40, methyl 3-{4-[(4-{[6-methoxy-7-(2-methoxyethoxy)quinazolin-4-yl]amino}-3,6-dioxocyclohexa-1,4-dien-1-yl)oxy]phenyl}propanoate]		92	94		110	
COCCOc1cc2ncnc(NC3=CC(=O)C(Oc4cccc(Cl)c4)=CC3=O)c2cc1OC [Example 33, 2-(3-chlorophenoxy)-5-{[6-methoxy-7-(2-methoxyethoxy)quinazolin-4-yl]amino}benzo-1,4-quinone]					19	inhibition at 0.1 µM ([1]; ATP conc. 10 μM): 84%; inhibition at 1 µM ([1]; ATP conc. 10 μM): 96%; inhibition at 1 µM ([1]; ATP conc. 1000 μM): 98%
COCCOc1cc2ncnc(NC3=CC(=O)C(Oc4ccc5c(c4)[nH]c4ccccc45)=CC3=O)c2cc1OC [Example 41, 2-(9H-carbazol-2-yloxy)-5-{[6-methoxy-7-(2-methoxyethoxy)quinazolin-4-yl]amino}benzo-1,4-quinone]	2 nM	92	92		120	inhibition at 0.1 µM [3]: -5%; inhibition at 1 µM ([3]; conc. 1000 nM): 42%; inhibition at 10 µM ([3]; conc. 10000 nM): 98%
COCCOc1cc2ncnc(NC3=C(SCc4ccccc4)C(=O)C=C(OC)C3=O)c2cc1OC [Example 19, 2-(benzylthio)-5-methoxy-3-{[6-methoxy-7-(2-methoxyethoxy)quinazolin-4-yl]amino}benzo-1,4-quinone]		41	88	88	-10	
COCCOc1cc2ncnc(NC3=CC(=O)C(Oc4ccc5cc(Br)ccc5c4)=CC3=O)c2cc1OC [Example 51, 2-[(6-bromo-2-naphthyl)oxy]-5-{[6-methoxy-7-(2-methoxyethoxy)quinazolin-4-yl]amino}benzo-1,4-quinone]		91	93		105	
COCCOc1cc2ncnc(NC3=CC(=O)C(Oc4cccc(OC)c4)=CC3=O)c2cc1OC [Example 28, 2-{[6-methoxy-7-(2-methoxyethoxy)quinazolin-4-yl]amino}-5-(3-methoxyphenoxy)benzo-1,4-quinone]	12.1 nM				35	inhibition at 0.1 µM ([1]; ATP conc. 10 μM): 83%; inhibition at 1 µM ([1]; ATP conc. 10 μM): 96%; inhibition at 1 µM ([1]; ATP conc. 1000 μM): 98%
COCCOc1cc2ncnc(NC3=CC(=O)C(N(C)Cc4ccccc4)=CC3=O)c2cc1OC [Example 82, 2-[benzyl(methyl)amino]-5-{[6-methoxy-7-(2-methoxyethoxy)quinazolin-4-yl]amino}benzo-1,4-quinone]		15	30	45	12	
